Laboratory results from patent publication US6841661B2, “Glycopeptide antibacterial compounds, compositions containing same and methods of using same” (Princeton Univerisity, priority 1999, dated 2005).
Values after ≈ are worked out from the molar mass of the structure shown.

How the values were obtained:
[1] = system: Staphylococcus aureus strain MB2985; assay: In vivo mouse methicillin-sensitive Staphylococcus aureus septicemia protection; parameters: species or system ICR female mice
Experimental: Selected compounds of the invention are tested in an in vivo mouse model. Single dose subcutaneous antibiotic protection from septicemic infections is measured as described by Gill, C. J., J. J. Jackson, L. Gerckens, B. Pelak, R. Thompson, J. Sundelof, H. Kropp and H. Rosen. Antimicrob. Agents Chemother. 42:1996-2001 (1998). Survival is monitored for seven days. ED50's and LD50's are determined by the method of Knudsen and Curtis. J. Am. Stat. Assoc. 42:282-296 (1947). Septicemia is induced in 20 gram ICR (derived from CD-I) female mice by intraperitoneal infection with Staphylococcus aureus strain MB2985. Infection is given i.p. in Brain Heart Broth (BHB) at an infectious inoculum of 1.8×10^7 cfu/mouse. Drug is administered subcutaneously immediately after the infection is initiated.

[2] = system: E. faecalis CL 4877 (VanB); assay: microbe, parasite or virus in culture; format: cell-based; conditions: for MIC, CL4877: E. faecalis CL 4877 (VanB)
How it was run: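 NCCLS M7-A4-based broth microdilution with twofold serial dilutions, incubated at 35° C; medium BHI for enterococci and VISA/MRSA, cation-adjusted Mueller-Hinton for E. coli. Inoculum about 1-5×10^6 CFU/ml (enterococci) or 3-7×10^5 CFU/ml (others); MIC is lowest concentration with no visible growth, read at 18-20 hr for E. coli, 22-24 hr otherwise.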

[3] = system: E. faecium CL 5053 (VanA); assay: microbe, parasite or virus in culture; format: cell-based; conditions: for MIC, CL5053: E. faecium CL 5053 (VanA)
How it was run: (§1)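 Twofold broth microdilution per modified NCCLS M7-A4, 35 °C. Enterococci and VISA/MRSA in BHI (VISA/MRSA precultured in TSB + 10% HS), E. coli in MH II. Inocula ~1-5×10^6 CFU/ml for enterococci, ~3-7×10^5 CFU/ml otherwise. MIC is the lowest concentration with no visible growth, read at 18-20 hr (E. coli) or 22-24 hr.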

VISA/MRSA CL 5705 = assay: In vitro MIC panel assay (NCCLS broth microdilution); format: cell-based, S. aureus; conditions: Staphylococcus aureus
Excerpt: (§2) National Committee for Clinical Laboratory Standards (NCCLS) guidelines [Methods for Dilution Antimicrobial Susceptibility Tests for Bacteria that Grow Aerobically-Fourth Edition; Approved Standard (NCCLS Document M7-A4, January 1997)] are used to establish the assay, although variations are made to optimize the published method according to the specific needs of the present investigation.
(§3) The test panel currently includes eight enterococci and 13 staphylococci, which are selected based upon their antibiotic susceptibility profiles. The methicillin-sensitive Staphylococcus aureus (MSSA) strain MB2985 (Smith isolate) is used to assesses the potential for serum protein binding of the compounds. The paired Gram-negative strains ASP #49 (envA-) and ASP #50 (envA+) (M. Salvatore/N. Lee) are included to judge membrane effects. Table 3 presents a detailed description of the strains included in the panel, including some of the sources of the strains of bacteria.
(§4) The glycopeptide antibiotic teicoplanin is included whenever possible. […]
(§5) The number of CFU/mL is determined on BHI agar plates, although this is not done routinely because titers of overnight cultures are relatively constant. […]

VISA/MRSA CL 5706 = assay: as above; format: cell-based, S. aureus; conditions: Staphylococcus aureus
Excerpt: as §2, §3, §4, §5

[4] = system: E. faecium CL 4931 (VanA); assay: microbe, parasite or virus in culture; format: cell-based; conditions: for MIC, CL4931: E. faecium CL 4931 (VanA)
How it was run: as §1

S. aureus MB 2985 = assay: MIC by microdilution in Mueller-Hinton broth (in vivo study); format: cell-based; conditions: Staphylococcus aureus, MB2985, inoculum 1.4 × 10^5 cfu/mL in cation adjusted MHB, read-out: MIC
Experimental: The MIC is determined by microdilution in Mueller-Hinton broth (MHB) according to the National Committee for Clinical Laboratory Standards guidelines after incubation for 24 hours. Enterococci are tested in cation-supplemented Mueller-Hinton broth at 1.4×10^5 cfu/ml. MIC is defined as the lowest concentration of antibiotic, which inhibits visible growth.

MRSA MH 76 = assay: In vitro MIC panel assay (NCCLS broth microdilution); format: cell-based, Staphylococcus aureus; conditions: Staphylococcus aureus, MRSA
Excerpt: as §2, §3, §4, §5

[5] = system: E. faecium CL 5242 (VanA); assay: microbe, parasite or virus in culture; format: cell-based; conditions: for MIC, CL5242: E. faecium CL 5242 (VanA)
How it was run: as §1

[6] = mouse septicemia, S. aureus 2985 i.p. 1.8 × 10^7 cfu/mouse, single s.c. dose at 0 hr, survival seven days

CN[C@H](CC(C)C)C(=O)N[C@H]1C(=O)N[C@@H](CC(N)=O)C(=O)N[C@H]2C(=O)N[C@H]3C(=O)N[C@H](C(=O)N[C@H](C(=O)O)c4cc(O)cc(O)c4-c4cc3ccc4O)[C@H](O)c3ccc(c(Cl)c3)Oc3cc2cc(c3O[C@@H]2O[C@H](CO)[C@@H](O)[C@H](O)[C@H]2O[C@H]2C[C@](C)(N)[C@H](O)[C@H](C)O2)Oc2ccc(cc2Cl)[C@H]1O [Vancomycin, vancomycin, reference compound]
ED50/MIC ([1]; S. aureus 2985, ratio of s.c. ED50 to MIC): 2.33
ED50 ([1]; Staphylococcus aureus, MB2985, mouse septicemia, S. aureus 2985 i.p. 1.8 × 10^7 cfu/mouse, single s.c. dose at 0 hr, survival seven days): 1.17 mg/kg
ED0 (s.c.) [1, 6]: ≦0.195 mg/kg
ED100 (s.c.) [1, 6]: 3.125 mg/kg
MIC ([2]; Enterococcus faecalis): 2050 µg/mL (≈ 1410 µM)
MIC, CL4877 ([2]; Table 9): 2050 µg/mL (≈ 1410 µM)
MIC, CL4877 ([2]; Table 10): 2050 µg/mL (≈ 1410 µM)
CL4877 (in vitro testing) ([2]; Tables 7 and 8, unit not given): 2048
MIC ([3]; Enterococcus faecium): 2050 µg/mL (≈ 1410 µM)
MIC, CL5053 ([3]; Table 9): 2050 µg/mL (≈ 1410 µM)
MIC, CL5053 ([3]; Table 10): 2050 µg/mL (≈ 1410 µM)
CL5053 (in vitro testing) ([3]; Tables 7 and 8, unit not given): 2048
MIC (VISA/MRSA CL 5705): 2 to 4 µg/mL (≈ 1.38 to 2.76 µM)
MIC (VISA/MRSA CL 5706): 4 to 8 µg/mL (≈ 2.76 to 5.52 µM)
MIC ([4]; Enterococcus faecium): 2050 µg/mL (≈ 1410 µM)
MIC, CL4931 ([4]; Table 9): 2050 µg/mL (≈ 1410 µM)
MIC, CL4931 ([4]; Table 10): 2050 µg/mL (≈ 1410 µM)
CL4931 (in vitro testing) ([4]; Tables 7 and 8, unit not given): 2048
MIC (S. aureus MB 2985): 0.5 µg/mL (≈ 0.345 µM)
MIC (MRSA MH 76): 1 µg/mL (≈ 0.69 µM)
MIC ([5]; Enterococcus faecium): 128 µg/mL (≈ 88.3 µM)
MIC, CL5242 ([5]; Table 9): 512 µg/mL (≈ 353 µM)
MIC, CL5242 ([5]; Table 10): 512 µg/mL (≈ 353 µM)
CL5242 (in vitro testing) ([5]; Tables 7 and 8, unit not given): 512
